According to patent US11230549B2, “Quinolino-pyrrolidin-2-one derivative and application thereof” (MEDSHINE DISCOVERY INC., priority 2018, dated 2022):

What was measured:
[1] = tested on: human lung cancer H446 cell subcutaneous xenograft tumor; assay: In vivo efficacy of ATM inhibitors and etoposide in H446 subcutaneous xenograft model; parameters: species or system female BALB/c nude mouse; conditions: etoposide 15 mg/kg IP, ATM inhibitor 5 mg/kg PO; for Tumor volume (mm^3) / Tumor volume (mm^3) (Day 26): Mean ± SEM; for T/C (%) tumor proliferation rate / TGI (%) tumor growth inhibition rate: Day 26; for Tumor volume (mm^3) (Day 26): Day 26 after administration
Experimental: Evaluation of the in vivo efficacy of the test drug ATM inhibitor and etoposide in a BALB/c nude mouse model with human lung cancer H446 cell subcutaneous xenograft tumor via intraperitoneal or oral administration.
5% CO2 culture. Conventional digestion treatment with pancreatin-EDTA for passage was carried out twice a week. When the cell saturation was 80% to 90%, the cells were collected, counted and inoculated.
0.2 mL 5×10^6 of H446 cells (1:1 plus matrigel) were subcutaneously inoculated on the right back of each nude mouse. The grouping and administration were started when the average tumor volume reached 125 mm^3 (Table).
The experimental index was to investigate whether the tumor growth was inhibited, delayed or cured. Tumor diameter was measured twice a week with a vernier caliper. The calculation formula of tumor volume: V=0.5a×b^2, wherein a and b represented the long and short diameters of the tumor, respectively.
Tumor proliferation rate T/C (%): wherein T is the average tumor volume obtained from the last measurement (PG-D26) of the treatment group, and C is the average tumor volume obtained from the last measurement (PG-D26) of the control group.
Mean value and standard error (SEM) of the tumor volume of each group at each time point were included (specific data is shown in tables). […] The comparison between two groups was analyzed by T-test, and the comparison between three or more groups was analyzed by one-way ANOVA. If there was heterogeneity of variance, the Games-Howell test was applied. If there was homogeneity of variance, the Dunnet (2-sided) test was used for analysis.

[2] = target: T1, Human-derived DNA-PK kinase (Homo sapiens, UniProt P78527); assay: DNA-PK enzyme activity test (HTRF, phosphorylation of GST-cMyc-p53); type: biochemical
T1 construct: Eurofins (contract laboratory that ran the test)
Experimental: (§1) The compounds of the present disclosure used for experiments are all prepared in-house, and their chemical names and structural formulas are shown in the preparation examples of each compound. The experimental tests were carried out by a UK company Eurofins, and the experimental results were provided by the company. The following experimental processes were also provided by the company.
(§2) Human-derived DNA-PK kinase was incubated in a buffer solution containing 50 nM of GST-cMyc-p53 and Mg/ATP. The concentration of Mg/ATP was determined according to different needs. The reaction was initiated by adding a Mg/ATP complex. After incubating for about 30 minutes at room temperature, a stop solution containing EDTA was added to stop the reaction. Finally, for phosphorylated p53, a detection buffer containing a d2-labeled anti-GST monoclonal antibody and an europium-labeled phosphorylated Ser15 antibody was added. Then time-resolved fluorescence mode was used to read a detection disk, and a homogeneous time-resolved fluorescence (HTRF) signal was obtained by calculating formula HTRF=10000×(Em665 nm/Em620 nm).

Human-derived ATM kinase = target: T2, Human-derived ATM kinase (Homo sapiens, UniProt Q13315); assay: ATM enzyme activity test (HTRF, phosphorylation of GST-cMyc-p53); type: biochemical
T2 construct: Eurofins (contract laboratory that ran the test)
Experimental: as §1
as §2, with “ATM” for “DNA-PK”, “30” for “50”

T2 sequence (Q13315 whole entry): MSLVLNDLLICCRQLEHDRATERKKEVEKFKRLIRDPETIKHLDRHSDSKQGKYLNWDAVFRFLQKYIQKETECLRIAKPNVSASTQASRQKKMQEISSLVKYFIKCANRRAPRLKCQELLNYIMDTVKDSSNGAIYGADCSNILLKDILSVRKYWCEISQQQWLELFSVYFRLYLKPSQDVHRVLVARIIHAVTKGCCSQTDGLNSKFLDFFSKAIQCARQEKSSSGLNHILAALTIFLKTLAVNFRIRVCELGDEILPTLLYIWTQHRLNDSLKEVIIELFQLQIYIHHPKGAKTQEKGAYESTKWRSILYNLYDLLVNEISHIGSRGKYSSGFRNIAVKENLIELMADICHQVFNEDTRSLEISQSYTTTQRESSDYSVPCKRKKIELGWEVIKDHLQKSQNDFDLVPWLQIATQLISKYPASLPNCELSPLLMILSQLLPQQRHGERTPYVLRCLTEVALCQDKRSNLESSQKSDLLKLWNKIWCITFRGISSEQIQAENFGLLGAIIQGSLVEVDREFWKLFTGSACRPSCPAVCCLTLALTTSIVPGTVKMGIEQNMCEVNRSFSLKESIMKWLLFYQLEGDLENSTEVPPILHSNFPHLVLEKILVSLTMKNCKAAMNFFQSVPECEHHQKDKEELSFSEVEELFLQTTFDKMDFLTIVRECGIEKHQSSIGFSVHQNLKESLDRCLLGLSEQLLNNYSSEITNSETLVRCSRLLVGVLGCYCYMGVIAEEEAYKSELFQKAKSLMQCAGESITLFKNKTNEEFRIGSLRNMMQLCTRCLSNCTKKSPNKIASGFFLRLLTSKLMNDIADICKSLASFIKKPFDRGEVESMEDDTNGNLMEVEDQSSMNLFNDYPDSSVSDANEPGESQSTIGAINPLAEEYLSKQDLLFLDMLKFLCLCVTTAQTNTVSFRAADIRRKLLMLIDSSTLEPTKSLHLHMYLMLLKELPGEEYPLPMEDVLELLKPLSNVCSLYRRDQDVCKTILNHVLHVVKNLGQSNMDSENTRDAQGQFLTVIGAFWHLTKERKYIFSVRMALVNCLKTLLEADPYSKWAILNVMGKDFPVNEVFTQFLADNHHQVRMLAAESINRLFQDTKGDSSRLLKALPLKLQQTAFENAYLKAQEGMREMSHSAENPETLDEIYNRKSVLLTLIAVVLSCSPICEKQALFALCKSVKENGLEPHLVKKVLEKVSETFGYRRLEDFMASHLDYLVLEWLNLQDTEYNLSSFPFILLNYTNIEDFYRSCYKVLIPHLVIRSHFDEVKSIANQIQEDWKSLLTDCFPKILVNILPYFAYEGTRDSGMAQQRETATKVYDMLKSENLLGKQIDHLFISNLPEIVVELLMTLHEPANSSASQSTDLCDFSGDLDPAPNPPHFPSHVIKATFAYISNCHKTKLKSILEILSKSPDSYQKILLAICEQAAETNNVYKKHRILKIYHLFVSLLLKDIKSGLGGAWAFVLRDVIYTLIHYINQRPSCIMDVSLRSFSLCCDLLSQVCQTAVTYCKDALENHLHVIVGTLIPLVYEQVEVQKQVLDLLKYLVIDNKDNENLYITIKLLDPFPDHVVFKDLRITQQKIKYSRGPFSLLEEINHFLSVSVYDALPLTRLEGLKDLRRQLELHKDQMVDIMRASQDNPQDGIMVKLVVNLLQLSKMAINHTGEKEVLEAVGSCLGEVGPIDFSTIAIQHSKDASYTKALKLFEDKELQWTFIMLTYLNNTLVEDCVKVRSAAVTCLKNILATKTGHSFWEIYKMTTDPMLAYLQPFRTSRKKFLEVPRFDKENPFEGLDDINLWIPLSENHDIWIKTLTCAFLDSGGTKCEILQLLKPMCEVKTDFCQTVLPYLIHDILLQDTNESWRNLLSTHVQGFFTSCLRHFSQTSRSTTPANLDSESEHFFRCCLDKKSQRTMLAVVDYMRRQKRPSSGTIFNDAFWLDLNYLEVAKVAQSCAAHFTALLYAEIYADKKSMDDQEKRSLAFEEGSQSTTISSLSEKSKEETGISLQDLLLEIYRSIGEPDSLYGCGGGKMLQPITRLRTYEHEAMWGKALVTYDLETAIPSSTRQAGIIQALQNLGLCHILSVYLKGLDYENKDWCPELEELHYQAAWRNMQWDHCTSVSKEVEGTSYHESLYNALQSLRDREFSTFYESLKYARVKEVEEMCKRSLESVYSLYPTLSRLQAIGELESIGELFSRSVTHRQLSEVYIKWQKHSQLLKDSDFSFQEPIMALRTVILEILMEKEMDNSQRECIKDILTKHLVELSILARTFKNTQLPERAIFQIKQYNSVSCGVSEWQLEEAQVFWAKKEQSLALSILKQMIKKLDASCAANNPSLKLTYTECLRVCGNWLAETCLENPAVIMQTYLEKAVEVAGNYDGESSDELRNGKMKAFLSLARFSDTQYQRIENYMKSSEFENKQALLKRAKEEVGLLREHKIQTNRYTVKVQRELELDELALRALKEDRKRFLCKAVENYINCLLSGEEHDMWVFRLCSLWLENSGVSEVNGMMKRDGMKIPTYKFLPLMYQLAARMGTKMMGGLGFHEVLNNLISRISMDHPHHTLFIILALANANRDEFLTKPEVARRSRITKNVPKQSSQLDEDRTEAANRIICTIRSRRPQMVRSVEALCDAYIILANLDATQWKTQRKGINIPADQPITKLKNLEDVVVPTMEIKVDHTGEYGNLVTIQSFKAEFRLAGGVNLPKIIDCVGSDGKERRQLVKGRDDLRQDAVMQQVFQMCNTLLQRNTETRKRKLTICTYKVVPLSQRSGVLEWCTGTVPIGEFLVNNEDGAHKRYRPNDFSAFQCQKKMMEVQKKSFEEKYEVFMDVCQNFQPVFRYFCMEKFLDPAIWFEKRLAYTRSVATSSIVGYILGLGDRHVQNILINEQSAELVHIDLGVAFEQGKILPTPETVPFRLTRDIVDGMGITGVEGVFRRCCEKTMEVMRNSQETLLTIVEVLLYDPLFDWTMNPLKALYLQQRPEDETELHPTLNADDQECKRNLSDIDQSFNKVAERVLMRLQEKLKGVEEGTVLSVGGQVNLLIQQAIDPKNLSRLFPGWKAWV

| Structure (SMILES) | IC50 [2] [nM] | IC50 (Human-derived ATM kinase) [nM] | also measured |
| --- | --- | --- | --- |
| COc1cc([C@@H]2c3cc4c(cc3[C@@H](O[C@@H]3O[C@@H]5CO[C@@H](C)O[C@H]5[C@H](O)[C@H]3O)[C@H]3COC(=O)[C@H]23)OCO4)cc(OC)c1O [Etoposide, etoposide, reference compound] | – | – | Tumor volume (mm^3) ([1]; Day 0 after administration): 125 ± 8 mm^3; Tumor volume (mm^3) ([1]; Day 3 after administration): 132 ± 11 mm^3; Tumor volume (mm^3) ([1]; Day 7 after administration): 259 ± 37 mm^3; Tumor volume (mm^3) ([1]; Day 10 after administration): 364 ± 47 mm^3; Tumor volume (mm^3) ([1]; Day 14 after administration): 552 ± 66 mm^3; Tumor volume (mm^3) ([1]; Day 17 after administration): 851 ± 84 mm^3; Tumor volume (mm^3) ([1]; Day 21 after administration): 1021 ± 112 mm^3; T/C (%) tumor proliferation rate [1]: 59.93%; TGI (%) tumor growth inhibition rate [1]: 41.95%; Tumor volume (mm^3) (Day 26) [1]: 1667 ± 193 mm^3 |
| CN(C)CCCOc1ccc(-c2ccc3ncc4c(c3c2)C2(CCOCC2)C(=O)N4C)cn1 [Example 1] | 78 | 0.9 | – |
| CN1C(=O)C2(CCOCC2)c2c1cnc1ccc(-c3cnn(C)c3)cc21 [Example 2] | 73 | 288 | – |
| CN1C(=O)C2(CCOCC2)c2c1cnc1ccc(-c3ccc(OCCCN4CC[C@H](F)C4)nc3)cc21 [Example 3] | 48 | 1 | – |
| CN1C(=O)C2(CCOCC2)c2c1cnc1ccc(-c3ccc(OCCCN4CC[C@@H](F)C4)nc3)cc21 [Example 4] | 62 | 1 | – |
| CN1C(=O)C2(CCOCC2)c2c1cnc1ccc(-c3ccc(OCCCN4CCC(F)CC4)nc3)cc21 [Example 5] | 92 | 2 | – |
| CN1C(=O)C2(CCOCC2)c2c1cnc1ccc(-c3ccc(OCCCN(C4CC4)C4CC4)nc3)cc21 [Example 6] | 800 | 2 | – |
| CN(C)CCCOc1ccc(-c2ccc3ncc4c(c3c2)C2(CCC(F)(F)CC2)C(=O)N4C)cn1 [Example 7] | 153 | 1 | – |
| CN(C)CCCOc1ccc(-c2ccc3ncc4c(c3c2)C2(CCNCC2)C(=O)N4C)cn1 [Example 8] | 99 | 3 | – |
| CN(C)CCCOc1ccc(-c2ccc3ncc4c(c3c2)C2(CCN(C)CC2)C(=O)N4C)cn1 [Example 9] | 83 | 1 | – |
| CCN1CCC2(CC1)C(=O)N(C)c1cnc3ccc(-c4ccc(OCCCN(C)C)nc4)cc3c12 [Example 10] | 80 | 2 | – |
| CCN1CCC2(CC1)C(=O)N(C)c1cnc3ccc(-c4ccc(OCCCN5CCCCC5)nc4)cc3c12 [Example 11] | 243 | 2 | – |
| CN(C)CCCOc1ccc(-c2ccc3ncc4c(c3c2)C2(CCN(CC(F)F)CC2)C(=O)N4C)cn1 [Example 12] | 26 | 2 | – |
| CN(C)CCCOc1ccc(-c2ccc3ncc4c(c3c2)C2(CCN(CC(F)(F)F)CC2)C(=O)N4C)cn1 [Example 13] | 27 | 4 | – |
| CN1C(=O)C2(CCN(CC(F)(F)F)CC2)c2c1cnc1ccc(-c3ccc(OCCCN4CCCCC4)nc3)cc21 [Example 14] | 46 | 3 | – |
| CC(C)N1CCC2(CC1)C(=O)N(C)c1cnc3ccc(-c4ccc(OCCCN(C)C)nc4)cc3c12 [Example 15] | 41 | 2 | – |
| CC(C)N1CCC2(CC1)C(=O)N(C)c1cnc3ccc(-c4ccc(OCCCN5CCCCC5)nc4)cc3c12 [Example 16] | 204 | 4 | – |
| CC(=O)N1CCC2(CC1)C(=O)N(C)c1cnc3ccc(-c4ccc(OCCCN(C)C)nc4)cc3c12 [Example 17] | 352 | 3 | – |
| CN(C)CCCOc1ccc(-c2ccc3ncc4c(c3c2)C2(CCN(C(=O)C3CC3)CC2)C(=O)N4C)cn1 [Example 18] | 343 | 2 | – |

| Structure (SMILES) | IC50 [2] [nM] | IC50 (Human-derived ATM kinase) [nM] | also measured |
| --- | --- | --- | --- |
| COC(=O)N1CCC2(CC1)C(=O)N(C)c1cnc3ccc(-c4ccc(OCCCN(C)C)nc4)cc3c12 [Example 19] | 77 | 0.8 | – |
| COC(=O)N1CCC2(CC1)C(=O)N(C)c1cnc3ccc(-c4ccc(OCCCN5CCCCC5)nc4)cc3c12 [Example 20] | 129 | 2 | – |
| CC(C)OC(=O)N1CCC2(CC1)C(=O)N(C)c1cnc3ccc(-c4ccc(OCCCN(C)C)nc4)cc3c12 [Example 21] | 509 | 7 | – |
| CN(C)CCCOc1ccc(-c2ccc3ncc4c(c3c2)C2(CCN(C3CC3)CC2)C(=O)N4C)cn1 [Example 22] | 14 | 1 | – |
| CN1C(=O)C2(CCN(C3CC3)CC2)c2c1cnc1ccc(-c3ccc(OCCCN4CCCCC4)nc3)cc21 [Example 23] | 30 | 0.8 | – |
| CN1C(=O)C2(CCOCC2)c2c1cnc1ccc(-c3ccc(OCCCN4CCCCC4)nc3)cc21 [Example 24] | 80 | 2 | – |
| COC1CCC2(CC1)C(=O)N(C)c1cnc3ccc(-c4ccc(OCCCN(C)C)nc4)cc3c12 (centres unmarked) [Example 25] | 92 | 1 | – |
| CN(C)CCCOc1ccc(-c2ccc3ncc4c(c3c2)C2(CCC(O)CC2)C(=O)N4C)cn1 (centres unmarked) [Example 26] | 76 | 1 | – |
| CN(C)CCCOc1ccc(-c2ccc3ncc4c(c3c2)C2(CCC(C)(O)CC2)C(=O)N4C)cn1 (centres unmarked) [Example 27] | 99 | 1 | – |
| CN1C(=O)C2(CCC(C)(O)CC2)c2c1cnc1ccc(-c3ccc(OCCCN4CCCCC4)nc3)cc21 (centres unmarked) [Example 28] | 334 | 2 | – |
| CN(C)CCCOc1ccc(-c2ccc3ncc4c(c3c2)C2(CCOCC2)C(=O)N4C2CC2)cn1 [Example 29] | 269 | 2 | – |
| O=C1N(C2CC2)c2cnc3ccc(-c4ccc(OCCCN5CCCCC5)nc4)cc3c2C12CCOCC2 [Example 30] | 475 | 2 | – |
| COCc1ccc(-c2ccc3ncc4c(c3c2)C2(CCOCC2)C(=O)N4C)cn1 [Example 31] | 88 | 63 | – |
| CN1C(=O)C2(CCOCC2)c2c1cnc1cc(F)c(-c3ccc(OCCCN4CCCCC4)nc3)cc21 [Example 32] | 561 | 2 | Tumor volume (mm^3) ([1]; Day 0 after administration): 125 ± 7 mm^3; Tumor volume (mm^3) ([1]; Day 3 after administration): 138 ± 6 mm^3; Tumor volume (mm^3) ([1]; Day 7 after administration): 229 ± 10 mm^3; Tumor volume (mm^3) ([1]; Day 10 after administration): 359 ± 36 mm^3; Tumor volume (mm^3) ([1]; Day 14 after administration): 644 ± 83 mm^3; Tumor volume (mm^3) ([1]; Day 17 after administration): 974 ± 129 mm^3; Tumor volume (mm^3) ([1]; Day 21 after administration): 1240 ± 157 mm^3; T/C (%) tumor proliferation rate [1]: 73.86%; TGI (%) tumor growth inhibition rate [1]: 27.36%; Tumor volume (mm^3) (Day 26) [1]: 2054 ± 221 mm^3 |
| CN(C)CCCOc1ccc(-c2cc3c4c(cnc3cc2F)N(C)C(=O)C42CCOCC2)cn1 [Example 33] | 593 | 1 | – |
| CN(C)CCCOc1ccc(-c2cc3c4c(cnc3cc2F)N(C2CC2)C(=O)C42CCOCC2)cn1 [Example 34] | > 1000 | 5 | – |
| O=C1N(C2CC2)c2cnc3cc(F)c(-c4ccc(OCCCN5CCCCC5)nc4)cc3c2C12CCOCC2 [Example 35] | > 1000 | 3 | – |
| CN(C)CCCOc1ccc(-c2cc3c4c(cnc3cc2Cl)N(C)C(=O)C42CCOCC2)cn1 [Example 36] | > 1000 | 12 | – |
